Test results: patent US12350270B2, “Antimalarial agents” (Merck Sharp & Dohme LLC, priority 2019, dated 2025)

These molecules were tested on parasites (ring stage, in human red blood cell culture) (assay: Parasite LDH growth assay (antiparasite potency, Parasite Assay)). Details: 0.7% rings, 2% haematocrit, 72 hours at 37° C., LDH readout of parasite growth.
Format: cell-based, Plasmodium falciparum
Procedure: Assessing Antiparasite Potency in a Parasite LDH Growth Assay (Parasite Assay)
The parasite stock was maintained at 4% haematocrit in RPMI-Hepes media buffered with sodium bicarbonate and supplemented with 5% heat inactivated human serum and 0.5% albumax.
On the day of assay set up, a blood smear of the parasite culture was Giemsa stained and counted. The parasitemia was adjusted to 0.7% rings and the haematocrit was diluted to 2% in RPMI-Hepes media buffered with sodium bicarbonate and supplemented with 5% heat inactivated human serum and 0.5% albumax. 30 ul of diluted parasites are then added into 10 ul of media+compound in pre-prepared Greiner TC assay plates. Parasite assay plates were placed in gassed humidified boxes in single layer and allowed to incubate at 37° C. for 72 hours. After 72 hours growth, assay plates are sealed with parafilm and frozen flat, in single file at −80° C. overnight. On the following day, assay plates are allowed to thaw at room temperature for 4 hours to which an LDH assay is performed to measure parasite growth.

In order of rising EC50:
1. CCC1(CC)CC(=O)N([C@@H]2CCOc3ccc(C(=O)NC4c5ccccc5OC4(C)COC)cc32)C(=N)N1 (single isomer, unassigned) [Example 64B]  0.9 nM
2. CCOC(=O)C1(C)Oc2ccccc2C1NC(=O)c1ccc2c(c1)[C@H](N1C(=N)NC(CC)(CC)CC1=O)CCO2 (single isomer, unassigned) [Example 65B]  2.6 nM
3. CCC1(CC)CC(=O)N([C@@H]2CCS(=O)(=O)c3ccc(C(=O)N[C@H]4CC(C)(C)Oc5ccccc54)cc32)C(=N)N1 [Example 70A, (R)-4-(4,4-diethyl-2-imino-6-oxotetrahydropyrimidin-1(2H)-yl)-N-((S)-2,2-dimethylchroman-4-yl)thiochromane-6-carboxamide 1,1-dioxide]  9.3 nM
4. CCC1(CC)CC(=O)N([C@@H]2CCOc3ccc(C(=O)NC4c5ccccc5OC4(C)C)cc32)C(=N)N1 (single isomer, unassigned) [Example 133B]  17 nM
5. CC[C@]1(C)CC(=O)N([C@@H]2CCOc3ccc(C(=O)NC4c5c(F)cccc5OCC4(C)O)cc32)C(=N)N1 (single isomer, unassigned) [Example 193C]  19.5 nM
6. CCC1(CC)CC(=O)N([C@@H]2CCOc3ccc(C(=O)NC4c5ccccc5OC4(C)COC)cc32)C(=N)N1 (single isomer, unassigned) [Example 64D]  42 nM
7. CCC1(CC)CC(=O)N([C@@H]2CCOc3ccc(C(=O)NC4c5ccccc5CC4(O)C(F)(F)F)cc32)C(=N)N1 (single isomer, unassigned) [Example 272A]  62.5 nM
8. CCC1(CC)C[C@@H](N2C(=N)NC(C)(C)CC2=O)c2cc(C(=O)N[C@@H]3c4ccccc4CC3(C)O)ccc2O1 (single isomer, unassigned) [Example 55B]  83.1 nM

Same assay, conditions: Plasmodium falciparum, Erythrocyte, 72 h, 0.7% rings, 2% haematocrit, 72 hours at 37° C., LDH readout of parasite growth

In order of falling EC50:
1. CCC1(CC)CC(=O)N([C@H]2C[C@@H](OC)c3ccc(C(=O)N[C@@H]4c5ccccc5OC[C@@]4(C)O)cc32)C(=N)N1 [Example 204, (1R,3S)-3-(4,4-diethyl-2-imino-6-oxo-hexahydropyrimidin-1-yl)-N-[(3S,4R)-3-hydroxy-3-methyl-chroman-4-yl]-1-methoxy-indane-5-carboxamide]  247 nM
2. CCC1(CC)CC(=O)N([C@H]2c3cc(C(=O)NC4c5ccccc5C(F)(F)[C@@H]4O)ccc3O[C@@]2(C)COC)C(=N)N1 (stereo in doubt) [Example 291, (2R,3S)-3-(4,4-diethyl-2-imino-6-oxo-hexahydropyrimidin-1-yl)-N-[(1S,2R)-3,3-difluoro-2-hydroxy-indan-1-yl]-2-(methoxymethyl)-2-methyl-3H-benzofuran-5-carboxamide]  240 nM
3. CC[C@]1(C)CC(=O)N([C@@H]2c3cc(C(=O)N[C@@H]4c5ccccc5OC(C)(C)[C@H]4O)ccc3C[C@@H]2C)C(=N)N1 [Example 166, (2S,3S)-3-[(4R)-4-ethyl-2-imino-4-methyl-6-oxo-hexahydropyrimidin-1-yl]-N-[(3S,4R)-3-hydroxy-2,2-dimethyl-chroman-4-yl]-2-methyl-indane-5-carboxamide]  154 nM
4. CC(C)[C@]1(C)CC(=O)N([C@@H]2CCOc3ccc(C(=O)N[C@@H]4c5ccccc5OC(C)(C)C4O)cc32)C(=N)N1 (stereo partly drawn) [Example 11B, (4R)-N-(3-hydroxy-2,2-dimethylchroman-4-yl)-4-((S)-2-imino-4-isopropyl-4-methyl-6-oxotetrahydropyrimidin-1(2H)-yl)chromane-6-carboxamide]  84 nM
5. CC[C@@]1(C)CC(=O)N(C2c3cc(C(=O)N[C@H]4CC(C)(C)Oc5ccccc54)ccc3OCC2O)C(=N)N1 (stereo partly drawn) [Example 177, N-[(4S)-2,2-dimethylchroman-4-yl]-4-[(4S)-4-ethyl-2-imino-4-methyl-6-oxo-hexahydropyrimidin-1-yl]-3-hydroxy-chromane-6-carboxamide]  66.9 nM
6. CC1(C)CC(=O)N(C2CCS(=O)(=O)c3ccc(C(=O)N[C@@H]4c5ccccc5OC[C@]4(C)O)cc32)C(=N)N1 (stereo partly drawn) [Example 229, N-[(3R,4R)-3-hydroxy-3-methyl-chroman-4-yl]-4-(2-imino-4,4-dimethyl-6-oxo-hexahydropyrimidin-1-yl)-1,1-dioxo-3,4-dihydro-2H-thiochromene-6-carboxamide]  59.3 nM
7. COCC1(C)CC(N2C(=N)NC(C)(C)CC2=O)c2cc(C(=O)N[C@@H]3c4ccccc4C[C@H]3O)ccc2O1 (stereo partly drawn) [Example 175, N-[(1R,2R)-2-hydroxyindan-1-yl]-4-(2-imino-4,4-dimethyl-6-oxo-hexahydropyrimidin-1-yl)-2-(methoxymethyl)-2-methyl-chromane-6-carboxamide]  31 nM
8. CC1(C)CC(=O)N([C@@H]2CC(C)(C)c3ccc(C(=O)N[C@H]4CC(C)(C)Oc5ccccc54)cc32)C(=N)N1 [Example 113, (3R)-N-[(4S)-2,2-dimethylchroman-4-yl]-3-(2-imino-4,4-dimethyl-6-oxo-hexahydropyrimidin-1-yl)-1,1-dimethyl-indane-5-carboxamide]  16.4 nM
9. CO[C@@H]1COc2ccccc2[C@H]1NC(=O)c1ccc2c(c1)[C@H](N1C(=N)NC(C)(C)CC1=O)CCO2 [Example 109, (4R)-4-(2-imino-4,4-dimethyl-6-oxo-hexahydropyrimidin-1-yl)-N-[(3S,4R)-3-methoxychroman-4-yl]chromane-6-carboxamide]  14 nM
10. CCC1(CC)CC(=O)N([C@@H]2CC(C)(C)Oc3ccc(C(=O)N[C@@H]4c5ccccc5OC[C@@H]4O)cc32)C(=N)N1 [Example 36A, (R)-4-(4,4-diethyl-2-imino-6-oxotetrahydropyrimidin-1(2H)-yl)-N-((3R,4R)-3-hydroxychroman-4-yl)-2,2-dimethylchromane-6-carboxamide]  8.9 nM
11. CC[C@]1(C)CC(=O)N([C@@H]2C[C@@H](C)c3ccc(C(=O)N[C@@H]4c5ccccc5C[C@@]4(C)O)cc32)C(=N)N1 [Example 95, (1R,3R)-3-[(4R)-4-ethyl-2-imino-4-methyl-6-oxo-hexahydropyrimidin-1-yl]-N-[(1R,2R)-2-hydroxy-2-methyl-indan-1-yl]-1-methyl-indane-5-carboxamide]  8.8 nM
12. CCC1(CC)CC(=O)N(C2c3cc(C(=O)N[C@@H]4c5ccccc5C[C@@]4(C)O)ccc3OCC2OC)C(=N)N1 (stereo partly drawn) [Example 212, 4-(4,4-diethyl-2-imino-6-oxo-hexahydropyrimidin-1-yl)-N-[(1R,2R)-2-hydroxy-2-methyl-indan-1-yl]-3-methoxy-chromane-6-carboxamide]  6.5 nM
13. COC1COc2ccc(C(=O)N[C@@H]3c4ccccc4OC(C)(C)[C@H]3O)cc2C1N1C(=N)NC(C)(C)CC1=O (stereo partly drawn) [Example 217, N-[(3S,4R)-3-hydroxy-2,2-dimethyl-chroman-4-yl]-4-(2-imino-4,4-dimethyl-6-oxo-hexahydropyrimidin-1-yl)-3-methoxy-chromane-6-carboxamide]  4.9 nM
14. CC[C@]1(C)CC(=O)N([C@@H]2C[C@@H](COC(F)F)Oc3ccc(C(=O)N[C@@H]4c5ccccc5OC[C@@]4(C)O)cc32)C(=N)N1 [Example 300, (2S,4R)-2-(difluoromethoxymethyl)-4-[(4R)-4-ethyl-2-imino-4-methyl-6-oxo-hexahydropyrimidin-1-yl]-N-[(3S,4R)-3-hydroxy-3-methyl-chroman-4-yl]chromane-6-carboxamide]  3.8 nM
15. CC[C@]1(C)CC(=O)N([C@H]2c3cc(C(=O)N[C@@H]4c5ccccc5OC(C)(C)[C@H]4O)ccc3OC[C@@H]2OC)C(=N)N1 [Example 255, (3R,4S)-4-[(4R)-4-ethyl-2-imino-4-methyl-6-oxo-hexahydropyrimidin-1-yl]-N-[(3S,4R)-3-hydroxy-2,2-dimethyl-chroman-4-yl]-3-methoxy-chromane-6-carboxamide]  3.3 nM
16. CCC1(CC)CC(=O)N([C@@H]2C[C@@H](CCCCCCNC(C)=O)Oc3ccc(C(=O)N[C@H]4CC(C)(C)Oc5ccccc54)cc32)C(=N)N1 [Example 309, (2R,4R)-2-(6-acetamidohexyl)-4-(4,4-diethyl-2-imino-6-oxo-hexahydropyrimidin-l-yl)-N-[(4S)-2,2-dimethylchroman-4-yl]chromane-6-carboxamide]  3.2 nM
17. CCC1(CC)CC(=O)N([C@@H]2CC(COC)Oc3ccc(C(=O)N[C@@H]4c5ccccc5C[C@H]4O)cc32)C(=N)N1 (single isomer, unassigned) [Example 17A]  2.7 nM
18. CCC1(CC)CC(=O)N([C@@H]2CC(C)(C)Oc3ccc(C(=O)N[C@@H]4c5ccccc5OC[C@H]4O)cc32)C(=N)N1 [Example 36B, (R)-4-(4,4-diethyl-2-imino-6-oxotetrahydropyrimidin-1(2H)-yl)-N-((3 S,4R)-3-hydroxychroman-4-yl)-2,2-dimethylchromane-6-carboxamide]  2.2 nM
19. CCC1(CC)CC(=O)N([C@@H]2CCOc3c(C#N)cc(C(=O)N[C@@H]4c5ccccc5OC(C)(C)[C@H]4O)cc32)C(=N)N1 [Example 28A, (R)-8-cyano-4-(4,4-diethyl-2-imino-6-oxotetrahydropyrimidin-1(2H)-yl)-N-((3S,4R)-3-hydroxy-2,2-dimethylchroman-4-yl)chromane-6-carboxamide]  1.8 nM
20. CCC1(CC)CC(=O)N([C@@H]2CCOc3ccc(C(=O)N[C@H]4c5ccccc5OCC4(C)O)cc32)C(=N)N1 (single isomer, unassigned) [Example 60A]  1.3 nM
21. CC(C)[C@]1(C)CC(=O)N([C@@H]2CCOc3ccc(C(=O)NC4c5ccccc5OC(C)(C)C4O)cc32)C(=N)N1 (single isomer, unassigned) [Example 11A]  0.9 nM
